Laboratory results published in patent US20230031406A1, “COMPOUNDS AND COMPOSITIONS FOR TREATING CONDITIONS ASSOCIATED WITH NLRP ACTIVITY” (Novartis AG, priority 2018, published 2023).
Where two headings read alike, the source gives them in different places. Values belong to the compound of their own block, whether it stands above or below them.

Test system: PMA-differentiated THP-1 cells
Test: IL-1β production in PMA-differentiated THP-1 cells stimulated with gramicidin (hTHP-1 assay containing 2% fetal bovine serum; Procedures 1 and 2)
Assay type: cell-based, human
Conditions: 2% fetal bovine serum
Outline: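 Compound titrations in 0.37% final DMSO were added to THP-1 cells that had been plated after 16-18 h PMA treatment, 50,000 per well in 2% FBS. One hour later the cells received gramicidin (5 μM, 2 h) and were centrifuged. HTRF detected IL-1β in the collected supernatants.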

[1] = Table B1, class symbols, read-out: Average IC50 of compounds in hTHP-1 assay: hTHP-1 IC50
[2] = Homo sapiens, THP-1, Table B1, class symbols, read-out: Average IC50 of compounds in hTHP-1 assay: hTHP-1 IC50
[3] = Homo sapiens, THP-1, Table B2, numeric bounds, read-out: hTHP-1 IC50
[4] = Homo sapiens, THP-1, Table B2, class symbols, read-out: hTHP-1 IC50
[5] = Homo sapiens, THP-1, Table B4, class symbols, read-out: hTHP-1 IC50
[6] = Homo sapiens, THP-1, Table B3, hTHP-1 assay, class symbols, read-out: IC50
[7] = Table B2, class symbols, read-out: hTHP-1 IC50
[8] = Homo sapiens, THP-1, Table B3, hTHP-1 assay, numeric values, read-out: IC50

IC50 [1]: 200 to 1000 nM
SMILES: CC(C)c1ncc(F)c(C(C)C)c1NC(=O)N=S(N)(=O)c1cc(C(C)(C)O)cs1 (single isomer, unassigned) [Compound 148a, (R) or (S)-N′-((5-fluoro-2,4-diisopropylpyridin-3-yl)carbamoyl)-4-(2-hy-droxypropan-2-yl)thiophene-2-sulfonimidamide]

IC50 (Table B4, class symbols, read-out: hTHP-1 IC50): 40 to 200 nM
SMILES: CCn1cc(F)c(S(N)(=O)=NC(=O)Nc2c3c(nc4c2CCC4)CCC3)n1 (single isomer, unassigned) [Example 761, (R) or (S)-1-ethyl-4-fluoro-N′-((1,2,3,5,6,7-hexahydrodicyclopenta[b,e]pyridin-8-yl)carbamoyl)-1H-pyrazole-3-sulfonimidamide]

IC50 [2]: 5000 to 30000 nM
SMILES: CN(C)Cc1ccc(S(N)(=O)=NC(=O)Nc2c3c(nc4c2CCC4)CCC3)cc1 (centres unmarked) [Compound 130, 4-((dimethylamino)methyl)-N′-((1,2,3,5,6,7-hexahydrodicyclopenta[b,e]pyridin-8-yl)carbamoyl)benzenesulfonimidamide]

IC50 [3]: > 30000 nM
SMILES: Cc1c(C2(C)CC2)nc2c(c1NC(=O)N=S(N)(=O)c1cnc(C(C)(O)CO)s1)CCC2 (centres unmarked) [Compound 707]

IC50 [2]: 40 to 200 nM
SMILES: CC(C)(O)c1ncc(S(N)(=O)=NC(=O)Nc2c3c(nc4c2CCC4(C)C)CCC3)s1 (centres unmarked) [Compound 153, N′-((3,3-dimethyl-1,2,3,5,6,7-hexahydrodicyclopenta[b,e]pyridin-8-yl)carbamoyl)-2-(2-hydroxypropan-2-yl)thiazole-5-sulfonimidamide]

IC50 [2]: 5000 to 30000 nM
SMILES: CC(C)c1c(-c2ccccc2)nc2c(c1NC(=O)N=S(N)(=O)c1cnc(C(C)(C)O)s1)CCC2 (centres unmarked) [Compound 145, 2-(2-hydroxypropan-2-yl)-N′-((3-isopropyl-2-phenyl-6,7-dihydro-5H-cyclopenta[b]pyridin-4-yl)carbamoyl)thiazole-5-sulfonimidamide]

IC50 [4]: 5000 to 30000 nM
SMILES: CC(C)(O)c1ncc(S(N)(=O)=NC(=O)Nc2c3c(nc4c2CC4)CCC3)s1 (centres unmarked) [Compound 672, 2-(2-Hydroxypropan-2-yl)-N′-((2,4,5,6-tetrahydro-1H-cyclobuta[b]cyclopenta[e]pyridin-7-yl)carbamoyl)thiazole-5-sulfonimidamide]

IC50 [5]: 200 to 1000 nM
SMILES: Cc1c(C(F)(F)F)nc2c(c1NC(=O)N=S(N)(=O)c1nn(C(C)C)cc1F)CCC2 (centres unmarked) [Example 734, 4-Fluoro-1-isopropyl-N′-((3-methyl-2-(trifluoromethyl)-6,7-dihydro-5H-cyclopenta[b]pyridin-4-yl)carbamoyl)-1H-pyrazole-3-sulfonimidamide]

IC50 [4]: 200 to 1000 nM
SMILES: CC(C)(O)c1cncc(S(N)(=O)=NC(=O)Nc2c3c(nc4c2CCC4(C)C)CCC3)c1 (centres unmarked) [Compound 684, N′-((3,3-dimethyl-1,2,3,5,6,7-hexahydrodicyclopenta[b,e]pyridin-8-yl)carbamoyl)-5-(2-hydroxypropan-2-yl)pyridine-3-sulfonimidamide]

IC50 [5]: 200 to 1000 nM
SMILES: C[C@@H]1CCc2c1nc1c(c2NC(=O)N=S(N)(=O)c2nn(-c3ccccc3)cc2F)CCC1 (stereo partly drawn) [Example 748, 4-Fluoro-N′-(((R)-3-methyl-1,2,3,5,6,7-hexahydrodicyclopenta [b, e]pyridin-8-yl)carbamoyl)-1-phenyl-1H-pyrazole-3-sulfonimidamide]

IC50 [6]: 5000 to 30000 nM
SMILES: C[C@@](O)(CO)c1cc(F)c([S@@](N)(=O)=NC(=O)Nc2c3c(nc4c2CCC42CC2)CCC3)s1 [Example 675, (S)-5-((R)-1,2-dihydroxypropan-2-yl)-3-fluoro-N′-((1′,5′,6′,7′-tetrahydro-2′H-spiro[cyclopropane-1,3′-dicyclopenta[b,e]pyridin]-8′-yl)carbamoyl)thiophene-2-sulfonimidamide]

IC50 (Homo sapiens, THP-1, Table B1, numeric bounds, read-out: Average IC50 of compounds in hTHP-1 assay: hTHP-1 IC50): > 30000 nM
SMILES: CC1CCc2c1nc1c(c2NC(=O)N=S(N)(=O)c2ccn(C(C)C)n2)CCC1 (single isomer, unassigned) [Compound 129ab, (S,S) or (S,R)-1-isopropyl-N′-((3-methyl-1,2,3,5,6,7-hexa-hydrodicyclo-penta[b,e]pyridin-8-yl)carbamoyl)-1H-pyrazole-3-sulfonimidamide]

IC50 [7]: 5000 to 30000 nM
SMILES: CC1(C)CCc2c1nc1c(c2NC(=O)N=S(N)(=O)c2sc(C(C)(O)CO)cc2F)CCC1 (single isomer, unassigned) [Compound 699c, (R, S) and (S, S) or (S, R) and (R, R)-5-(1,2-Dihydroxypropan-2-yl)-N′-((3,3-dimethyl-1,2,3,5,6,7-hexahydrodicyclopenta [b,e]pyridin-8-yl)carbamoyl)-3-fluorotliophene-2-sulfonimidamide]

IC50 [6]: 1000 to 5000 nM
SMILES: CC(C)(O)c1cc(F)c(S(N)(=O)=NC(=O)Nc2cc(CC(F)(F)F)nc3c2CCC3)s1 (single isomer, unassigned) [Example 689, (R) or (S)-3-Fluoro-5-(2-hydroxypropan-2-yl)-N′-((2-(2,2,2-trifluoroethyl)-6,7-dihydro-5H-cyclopenta[b]pyridin-4-yl)carbamoyl)thiophene-2-sulfonimidamide]

IC50 [3]: > 30000 nM
SMILES: COC(C)(C)c1nc(CO)c(S(N)(=O)=NC(=O)Nc2c3c(nc4c2CCC4(C)C)CCC3)s1 (single isomer, unassigned) [Compound 648b, (S) or (R)-N′-((3,3-dimethyl-1,2,3,5,6,7-hexahydrodicyclopenta [b,e]pyridin-8-yl)carbamoyl)-4-(hydroxymethyl)-2-(2-methoxypropan-2-yl)thiazole-5-sulfonimidamide]

IC50 [8]: > 30000 nM
SMILES: CC(C)n1nc(S(N)(=O)=NC(=O)Nc2c3c(nc4c2CCC42CC2)CCC3)cc1CO (single isomer, unassigned) [Example 642, (S) or (R)-5-(hydroxymethyl)-1-isopropyl-N′-((1′,5′,6′,7′-tetrahydro-2′H-spiro[cyclopropane-1,3′-dicyclopenta[b,e]pyridin]-8′-yl)carbamoyl)-1H-pyrazole-3-sulfonimidamide]

IC50 [8]: > 30000 nM
SMILES: Cc1c(C(F)(F)F)nc2c(c1NC(=O)N=S(N)(=O)c1cnn3c1OCCC3)CCC2 (single isomer, unassigned) [Example 658, (S) or (R)-N′-((3-methyl-2-(trifluoromethyl)-6,7-dihydro-5H-cyclopenta[b]pyridin-4-yl)carbamoyl)-6,7-dihydro-5H-pyrazolo[5,1-b][1,3] oxazine-3-sulfonimidamide]

IC50 [7]: 5000 to 30000 nM
SMILES: CCc1c(C(F)(F)F)nc2c(c1NC(=O)N=S(N)(=O)c1cnc(C(C)(C)O)s1)CCC2 (single isomer, unassigned) [Compound 610b, (S) or (R)-N′-((3-ethyl-2-(trifluoromethyl)-6,7-dihydro-5H-cyclopenta[b]pyridin-4-yl)carbamoyl)-2-(2-hydroxypropan-2-yl)thiazole-5-sulfonimidamide]

IC50 [1]: 40 to 200 nM
SMILES: CC(C)(O)c1csc(S(N)(=O)=NC(=O)Nc2c3c(nc4c2CCC4(C)C)CCC3)c1 (single isomer, unassigned) [Compound 127b, (R) or (S)-N′-((3,3-dimethyl-1,2,3,5,6,7-hexahydro-dicyclopenta[b,e]pyridin-8-yl)carbamoyl)-4-(2-hydroxypropan-2-yl)thio-phene-2-sulfonimidamide]

IC50 [6]: 1000 to 5000 nM
SMILES: CCn1cc(F)c(S(N)(=O)=NC(=O)Nc2c(C)c(CC(F)(F)F)nc3c2CCC3)n1 (centres unmarked) [Example 619, 1-Ethyl-4-fluoro-N′-((3-methyl-2-(2,2,2-trifluoroethyl)-6,7-dihydro-5H-cyclopenta[b]pyridin-4-yl)carbamoyl)-1H-pyrazole-3-sulfonimidamide]

IC50 [4]: 1000 to 5000 nM
SMILES: Cc1c(C2CC2)nc(C2CC2)c(C)c1NC(=O)N=S(N)(=O)c1cc(C(C)(C)O)cs1 (centres unmarked) [Compound 612, N′-((2,6-dicyclopropyl-3,5-dimethylpyridin-4-yl)carbamoyl)-4-(2-hydroxypropan-2-yl)thiophene-2-sulfonimidamide]

IC50 [7]: 200 to 1000 nM
SMILES: CC(C)(O)c1cnc(S(N)(=O)=NC(=O)Nc2c3c(nc4c2CCC4(C)C)CCC3)s1 (single isomer, unassigned) [Compound 686a, (S) or (R)-N′-((3,3-dimethyl-1,2,3,5,6,7-hexahydrodicyclopenta [b,e]pyridin-8-yl)carbamoyl)-5-(2-hydroxypropan-2-yl)thiazole-2-sulfonimidamide]

IC50 [1]: 1000 to 5000 nM
SMILES: CC(C)c1ncc(F)c(C(C)C)c1NC(=O)N=S(N)(=O)c1ncc(C(C)(C)O)s1 (centres unmarked) [Compound 165, N′-((5-fluoro-2,4-diisopropylpyridin-3-yl)carbamoyl)-5-(2-hydroxypropan-2-yl)thiazole-2-sulfonimidamide]

IC50 [6]: 8 to 40 nM
SMILES: CCn1cc(F)c(S(N)(=O)=NC(=O)Nc2c3c(nc4c2CCC4(C)C)CCC3)n1 (centres unmarked) [Example 638, N′-((3,3-dimethyl-1,2,3,5,6,7-hexahydrodicyclopenta[b,e]pyridin-8-yl)carbamoyl)-1-ethyl-4-fluoro-1H-pyrazole-3-sulfonimidamide]

IC50 [4]: 200 to 1000 nM
SMILES: Cc1c(C(F)(F)F)nc2c(c1NC(=O)N=S(N)(=O)c1ccn(C(C)C)n1)CCC2 (centres unmarked) [Compound 628, 1-Isopropyl-N′-((3-methyl-2-(trifluoromethyl)-6,7-dihydro-5H-cyclopenta[b]pyridin-4-yl)carbamoyl)-1H-pyrazole-3-sulfonimidamide]

IC50 [1]: 5000 to 30000 nM
SMILES: CC(C)(O)c1cnc(S(N)(=O)=NC(=O)Nc2c3c(nc4c2CCC4)CCC3)s1 (single isomer, unassigned) [Compound 167a, (S) or (R)-N′-((1,2,3,5,6,7-hexahydrodicyclo-penta[b,e]pyridin-8-yl)carbamoyl)-5-(2-hydroxypropan-2-yl)thiazole-2-sulfonimidamide]
